Test results published in ChEMBL document CHEMBL6121066, “Structure-Activity Relationship Studies of DNA Methyltransferase 1 Monovalent Degraders” (J Med Chem, 2025).
Calls of active or inactive are those of the source. The calls are words filed in the database; no cut-off is given here.

Columns and labels:
[1] = system: HCT-116; experiment: Induction of molecular glue effect mediated DNMT1 degradation in human HCT-116 cells assessed as reduction in DNMT1 protein level at 100 nM preincubated with MG132 for 2 hrs followed by compound addition and measured after 24 hrs by Western blot analysis; assay type: cell-based
[2] = target: T1, Histone-lysine N-methyltransferase EHMT2 (Homo sapiens) (UniProt Q96KQ7); experiment: Inhibition of human G9a using histone H3 and SAM as substrate at 1 uM by radioisotope-based MT HotSpot assay relative to control
T1 sequence (whole entry): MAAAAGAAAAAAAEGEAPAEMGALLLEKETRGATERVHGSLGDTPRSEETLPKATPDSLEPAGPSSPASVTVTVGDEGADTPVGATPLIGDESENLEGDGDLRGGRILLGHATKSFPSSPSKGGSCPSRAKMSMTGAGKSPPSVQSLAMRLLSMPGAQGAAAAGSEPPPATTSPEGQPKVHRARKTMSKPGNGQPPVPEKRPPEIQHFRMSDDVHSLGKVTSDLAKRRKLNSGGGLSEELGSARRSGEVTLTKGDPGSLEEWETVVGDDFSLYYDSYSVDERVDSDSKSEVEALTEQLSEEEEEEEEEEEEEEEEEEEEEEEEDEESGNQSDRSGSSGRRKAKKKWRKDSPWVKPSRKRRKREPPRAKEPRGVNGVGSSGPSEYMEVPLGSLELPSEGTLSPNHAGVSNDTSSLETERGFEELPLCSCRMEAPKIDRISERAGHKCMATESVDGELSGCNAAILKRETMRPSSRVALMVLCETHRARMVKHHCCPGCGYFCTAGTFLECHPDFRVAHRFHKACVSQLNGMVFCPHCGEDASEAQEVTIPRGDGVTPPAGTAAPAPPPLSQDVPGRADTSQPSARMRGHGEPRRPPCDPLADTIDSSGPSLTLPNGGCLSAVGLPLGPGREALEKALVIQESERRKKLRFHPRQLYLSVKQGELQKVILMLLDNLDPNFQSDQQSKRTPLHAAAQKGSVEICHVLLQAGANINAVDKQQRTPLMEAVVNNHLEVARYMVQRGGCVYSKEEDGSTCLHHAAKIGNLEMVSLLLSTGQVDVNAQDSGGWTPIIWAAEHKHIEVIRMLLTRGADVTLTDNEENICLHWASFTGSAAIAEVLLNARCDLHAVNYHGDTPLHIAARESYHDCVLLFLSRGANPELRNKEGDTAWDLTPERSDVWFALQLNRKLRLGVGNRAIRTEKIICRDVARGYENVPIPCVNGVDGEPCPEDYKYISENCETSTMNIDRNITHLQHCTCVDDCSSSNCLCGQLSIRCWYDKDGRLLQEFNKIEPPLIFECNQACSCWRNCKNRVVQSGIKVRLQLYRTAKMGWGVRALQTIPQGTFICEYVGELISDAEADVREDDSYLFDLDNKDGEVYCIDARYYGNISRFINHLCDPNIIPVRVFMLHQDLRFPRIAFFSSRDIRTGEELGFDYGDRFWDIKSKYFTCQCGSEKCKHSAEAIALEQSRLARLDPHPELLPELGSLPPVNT

[3] = system: MDA-MB-468; experiment: Antiproliferative activity against human MDA-MB-468 cells assessed as inhibition of cell growth upto 10 uM incubated for 7 days by CCK8 assay relative to control; assay type: functional; conditions: time 7 day, up to 10 µM
[4] = system: HCT-116; experiment: Induction of molecular glue effect mediated DNMT1 degradation in human HCT-116 cells assessed as reduction in DNMT1 protein level by measuring half-life at 500 nM preincubated with cycloheximide for 2 hrs followed by compound administration and measured after 24 hrs by Western blot analysis; assay type: cell-based
[5] = system: MDA-MB-468; experiment: Effect on DNMT1 mRNA level in human MDA-MB-468 cells at 500 nM incubated for 24 hrs by RT-qPCR analysis; assay type: functional, cell-based
[6] = system: HCT-116; experiment: Induction of molecular glue effect mediated DNMT1 degradation in human HCT-116 cells transfected with WWP1 siRNA assessed as reduction in DNMT1 protein level at 100 nM measured after 24 hrs by Western blot analysis; assay type: cell-based
[7] = target: DNA (cytosine-5)-methyltransferase 3A (Homo sapiens) (UniProt Q9Y6K1); experiment: Inhibition of human DNMT3A using lambda DNA and SAM as substrate at 1 uM by radioisotope-based MT HotSpot assay relative to control
Chain of DNA (cytosine-5)-methyltransferase 3A (Homo sapiens) (Q9Y6K1 whole entry, looked up): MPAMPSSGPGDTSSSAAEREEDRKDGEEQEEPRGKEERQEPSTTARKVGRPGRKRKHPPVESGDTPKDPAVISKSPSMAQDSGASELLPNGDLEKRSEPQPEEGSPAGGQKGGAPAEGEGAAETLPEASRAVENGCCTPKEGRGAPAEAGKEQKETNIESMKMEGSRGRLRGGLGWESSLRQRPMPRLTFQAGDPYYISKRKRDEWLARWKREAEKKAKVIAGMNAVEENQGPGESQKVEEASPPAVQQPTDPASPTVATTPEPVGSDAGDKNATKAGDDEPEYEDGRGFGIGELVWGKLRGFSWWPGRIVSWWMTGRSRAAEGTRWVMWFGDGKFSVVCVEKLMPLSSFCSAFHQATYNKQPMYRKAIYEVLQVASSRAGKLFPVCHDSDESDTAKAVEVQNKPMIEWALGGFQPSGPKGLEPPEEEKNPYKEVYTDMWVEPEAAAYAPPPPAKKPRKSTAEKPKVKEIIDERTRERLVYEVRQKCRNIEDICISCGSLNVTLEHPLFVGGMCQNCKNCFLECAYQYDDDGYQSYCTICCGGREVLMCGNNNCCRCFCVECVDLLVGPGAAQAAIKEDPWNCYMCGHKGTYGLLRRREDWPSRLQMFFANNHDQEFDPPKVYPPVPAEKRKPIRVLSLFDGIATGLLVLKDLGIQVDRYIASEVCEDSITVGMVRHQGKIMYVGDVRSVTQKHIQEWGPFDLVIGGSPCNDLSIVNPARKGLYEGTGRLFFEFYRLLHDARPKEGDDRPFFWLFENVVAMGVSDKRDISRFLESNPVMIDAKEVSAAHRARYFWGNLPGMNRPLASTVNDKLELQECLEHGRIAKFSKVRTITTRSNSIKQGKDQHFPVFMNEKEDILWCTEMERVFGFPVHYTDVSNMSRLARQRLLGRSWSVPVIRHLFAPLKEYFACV

[8] = system: MDA-MB-468; experiment: Induction of molecular glue effect mediated DNMT1 degradation in human MDA-MB-468 cells assessed as reduction in DNMT1 protein level at 100 nM preincubated with MLN4924 for 2 hrs followed by compound addition and measured after 24 hrs by Western blot analysis; assay type: cell-based
[9] = target: Histone-lysine N-methyltransferase 2A (Homo sapiens) (UniProt Q03164); experiment: Inhibition of human MLL1 using nucleosomes and SAM as substrate at 1 uM by radioisotope-based MT HotSpot assay relative to control
Chain of Histone-lysine N-methyltransferase 2A (Homo sapiens) (Q03164 1-2718 limits assumed): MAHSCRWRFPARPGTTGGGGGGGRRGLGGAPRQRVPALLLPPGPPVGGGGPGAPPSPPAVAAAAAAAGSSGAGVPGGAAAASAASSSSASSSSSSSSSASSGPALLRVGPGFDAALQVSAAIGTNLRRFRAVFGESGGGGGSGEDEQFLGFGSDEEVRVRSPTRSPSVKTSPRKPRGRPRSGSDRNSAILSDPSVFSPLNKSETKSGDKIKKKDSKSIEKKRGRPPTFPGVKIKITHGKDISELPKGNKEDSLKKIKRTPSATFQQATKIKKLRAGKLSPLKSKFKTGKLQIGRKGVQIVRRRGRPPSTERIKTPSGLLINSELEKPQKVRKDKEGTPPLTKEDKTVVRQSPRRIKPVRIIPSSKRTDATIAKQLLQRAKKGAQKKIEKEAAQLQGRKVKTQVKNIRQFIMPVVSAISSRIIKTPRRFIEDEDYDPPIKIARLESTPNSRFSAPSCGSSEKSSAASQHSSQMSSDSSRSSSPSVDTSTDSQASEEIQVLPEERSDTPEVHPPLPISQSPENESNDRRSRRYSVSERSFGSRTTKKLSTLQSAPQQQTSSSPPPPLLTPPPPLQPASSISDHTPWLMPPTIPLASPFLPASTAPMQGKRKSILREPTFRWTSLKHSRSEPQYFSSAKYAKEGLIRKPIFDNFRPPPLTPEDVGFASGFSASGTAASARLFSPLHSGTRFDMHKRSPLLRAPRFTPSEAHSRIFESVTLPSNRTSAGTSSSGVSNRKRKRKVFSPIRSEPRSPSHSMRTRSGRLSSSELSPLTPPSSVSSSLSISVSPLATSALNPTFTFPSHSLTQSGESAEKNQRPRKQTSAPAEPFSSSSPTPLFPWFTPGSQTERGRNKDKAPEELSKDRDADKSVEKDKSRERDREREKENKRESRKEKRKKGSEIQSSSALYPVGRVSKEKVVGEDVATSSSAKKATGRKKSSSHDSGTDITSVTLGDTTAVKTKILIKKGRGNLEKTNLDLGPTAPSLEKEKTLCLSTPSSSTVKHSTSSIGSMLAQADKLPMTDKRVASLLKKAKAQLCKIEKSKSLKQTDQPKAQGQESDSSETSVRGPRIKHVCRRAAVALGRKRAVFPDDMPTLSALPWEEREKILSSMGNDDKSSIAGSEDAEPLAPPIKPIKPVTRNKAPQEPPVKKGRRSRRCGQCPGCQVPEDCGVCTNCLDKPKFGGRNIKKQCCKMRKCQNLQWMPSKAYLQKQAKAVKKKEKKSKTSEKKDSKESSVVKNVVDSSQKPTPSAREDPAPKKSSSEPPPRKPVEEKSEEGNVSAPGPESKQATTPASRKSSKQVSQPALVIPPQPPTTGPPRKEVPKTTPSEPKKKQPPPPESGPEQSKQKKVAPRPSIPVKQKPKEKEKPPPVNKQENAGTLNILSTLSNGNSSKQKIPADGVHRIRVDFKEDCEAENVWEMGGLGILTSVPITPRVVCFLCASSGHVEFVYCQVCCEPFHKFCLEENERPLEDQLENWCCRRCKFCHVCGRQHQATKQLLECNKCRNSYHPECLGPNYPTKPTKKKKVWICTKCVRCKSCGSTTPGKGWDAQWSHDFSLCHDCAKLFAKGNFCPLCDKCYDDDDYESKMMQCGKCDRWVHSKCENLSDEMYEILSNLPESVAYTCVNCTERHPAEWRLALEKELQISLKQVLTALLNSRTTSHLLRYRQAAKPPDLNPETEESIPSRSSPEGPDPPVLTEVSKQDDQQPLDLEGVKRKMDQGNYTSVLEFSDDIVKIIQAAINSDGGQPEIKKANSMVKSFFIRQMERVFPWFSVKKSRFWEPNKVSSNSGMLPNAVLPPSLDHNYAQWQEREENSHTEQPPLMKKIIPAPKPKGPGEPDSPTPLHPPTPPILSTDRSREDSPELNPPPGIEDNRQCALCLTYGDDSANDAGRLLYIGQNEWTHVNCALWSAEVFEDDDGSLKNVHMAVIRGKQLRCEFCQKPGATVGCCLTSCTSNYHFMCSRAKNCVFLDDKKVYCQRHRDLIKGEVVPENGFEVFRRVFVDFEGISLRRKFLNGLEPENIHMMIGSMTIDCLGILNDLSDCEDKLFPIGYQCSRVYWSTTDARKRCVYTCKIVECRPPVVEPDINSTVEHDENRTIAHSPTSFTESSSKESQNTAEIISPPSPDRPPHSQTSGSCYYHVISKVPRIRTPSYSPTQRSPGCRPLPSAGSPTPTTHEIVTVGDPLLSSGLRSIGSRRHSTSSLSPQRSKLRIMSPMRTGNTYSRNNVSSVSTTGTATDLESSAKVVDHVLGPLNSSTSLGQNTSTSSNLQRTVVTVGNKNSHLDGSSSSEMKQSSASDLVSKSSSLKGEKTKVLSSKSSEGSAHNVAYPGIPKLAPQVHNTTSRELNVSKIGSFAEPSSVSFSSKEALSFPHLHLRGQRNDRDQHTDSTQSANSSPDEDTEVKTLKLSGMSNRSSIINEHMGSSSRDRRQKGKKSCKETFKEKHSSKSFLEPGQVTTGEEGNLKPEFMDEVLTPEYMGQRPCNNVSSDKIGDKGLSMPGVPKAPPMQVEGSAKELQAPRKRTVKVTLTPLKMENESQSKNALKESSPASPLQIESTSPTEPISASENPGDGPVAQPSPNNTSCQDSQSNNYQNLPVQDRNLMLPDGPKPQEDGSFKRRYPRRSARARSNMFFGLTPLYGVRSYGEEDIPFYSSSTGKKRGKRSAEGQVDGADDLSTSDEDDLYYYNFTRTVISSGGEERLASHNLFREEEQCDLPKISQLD
Chain of Histone-lysine N-methyltransferase 2A (Homo sapiens) (Q03164 2719-3969 limits assumed): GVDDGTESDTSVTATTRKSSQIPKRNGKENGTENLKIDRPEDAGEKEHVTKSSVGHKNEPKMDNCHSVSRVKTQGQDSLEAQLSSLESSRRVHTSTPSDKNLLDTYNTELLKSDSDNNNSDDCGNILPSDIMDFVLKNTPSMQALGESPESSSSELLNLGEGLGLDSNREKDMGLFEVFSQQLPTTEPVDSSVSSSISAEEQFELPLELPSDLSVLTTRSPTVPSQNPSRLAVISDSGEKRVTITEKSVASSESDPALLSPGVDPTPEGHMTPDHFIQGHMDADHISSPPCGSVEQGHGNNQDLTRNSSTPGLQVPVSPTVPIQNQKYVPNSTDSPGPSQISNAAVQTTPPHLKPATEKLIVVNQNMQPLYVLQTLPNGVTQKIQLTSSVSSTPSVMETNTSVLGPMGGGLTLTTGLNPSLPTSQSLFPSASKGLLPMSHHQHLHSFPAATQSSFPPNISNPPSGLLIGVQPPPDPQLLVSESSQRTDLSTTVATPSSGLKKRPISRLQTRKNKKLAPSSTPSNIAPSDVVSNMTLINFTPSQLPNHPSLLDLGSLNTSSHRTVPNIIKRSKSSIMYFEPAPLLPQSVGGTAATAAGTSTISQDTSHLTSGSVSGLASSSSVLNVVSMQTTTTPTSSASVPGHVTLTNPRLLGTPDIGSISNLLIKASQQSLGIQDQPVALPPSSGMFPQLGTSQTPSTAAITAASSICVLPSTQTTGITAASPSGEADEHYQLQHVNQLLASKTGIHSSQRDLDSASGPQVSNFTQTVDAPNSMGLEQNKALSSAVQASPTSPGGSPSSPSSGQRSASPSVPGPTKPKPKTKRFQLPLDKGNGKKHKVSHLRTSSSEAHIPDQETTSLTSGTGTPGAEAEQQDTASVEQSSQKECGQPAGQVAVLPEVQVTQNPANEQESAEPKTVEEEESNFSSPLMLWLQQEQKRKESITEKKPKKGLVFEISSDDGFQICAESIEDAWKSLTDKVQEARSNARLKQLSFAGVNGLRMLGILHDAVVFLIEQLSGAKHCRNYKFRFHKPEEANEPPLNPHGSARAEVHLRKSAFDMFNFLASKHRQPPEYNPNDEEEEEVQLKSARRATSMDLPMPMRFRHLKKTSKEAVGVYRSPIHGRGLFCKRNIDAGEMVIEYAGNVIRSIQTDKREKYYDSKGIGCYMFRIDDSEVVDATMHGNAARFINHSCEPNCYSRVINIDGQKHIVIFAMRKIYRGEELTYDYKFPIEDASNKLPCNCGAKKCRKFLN

[10] = system: HCT-116; experiment: Induction of molecular glue effect mediated DNMT1 degradation in human HCT-116 cells assessed as reduction in DNMT1 protein level at 500 nM measured after 24 hrs by Western blot analysis relative to control; assay type: cell-based; parameters: scale not given: the % may be the effect or the level left
[11] = target: Histone-lysine N-methyltransferase, H3 lysine-79 specific (Homo sapiens) (UniProt Q8TEK3); experiment: Inhibition of human DOT1L using oligo nucleosomes and SAM as substrate at 1 uM by radioisotope-based MT HotSpot assay relative to control
[12] = system: HCT-116; experiment: (§1) Induction of molecular glue effect mediated DNMT1 degradation in human HCT-116 cells assessed as reduction in DNMT1 protein level incubated for 24 hrs by Western blot analysis; assay type: cell-based
[13] = as §1; assay type: cell-based; conditions: HCT-116, 24 h
[14] = system: HCT-116; experiment: Induction of molecular glue effect mediated DNMT1 degradation in human HCT-116 cells assessed as reduction in DNMT1 protein level by measuring maximal efficacy at 1 uM incubated for 24 hrs by Western blot analysis relative to control; assay type: cell-based
[15] = system: MDA-MB-468; experiment: Induction of molecular glue effect mediated DNMT1 degradation in human MDA-MB-468 cells assessed as reduction in DNMT1 protein level at 100 nM preincubated with MG132 for 2 hrs followed by compound addition and measured after 24 hrs by Western blot analysis; assay type: cell-based
[16] = system: HCT-116; experiment: Induction of molecular glue effect mediated DNMT1 degradation in human HCT-116 cells assessed as reduction in DNMT1 protein level at 500 nM by Western blot analysis; assay type: cell-based; conditions: time 2-24 hrs
[17] = system: HCT-116; experiment: Induction of molecular glue effect mediated DNMT1 degradation in human HCT-116 cells assessed as reduction in DNMT1 protein level at 100 nM preincubated with heclin for 2 hrs followed by compound addition and measured after 24 hrs by Western blot analysis; assay type: cell-based
[18] = system: HCT-116; experiment: Effect on DNMT1 mRNA level in human HCT-116 cells at 500 nM incubated for 24 hrs by RT-qPCR analysis; assay type: functional, cell-based
[19] = system: HCT-116; experiment: Induction of molecular glue effect mediated DNMT1 degradation in human HCT-116 cells transfected with UHRF1 siRNA assessed as reduction in DNMT1 protein level at 100 nM measured after 24 hrs by Western blot analysis; assay type: cell-based
[20] = Induction of molecular glue effect mediated DNMT1 degradation in human NCI-H1299 cells assessed as reduction in DNMT1 protein level incubated for 24 hrs by Western blot analysis; assay type: cell-based; conditions: NCI-H1299, 24 h

- inhibition [2]: < 20%
- inhibition [7]: < 20%
- inhibition [9]: < 20%
- inhibition [11]: < 20%
- DC50 [13]: 35 nM
- DC50 [20]: 86 nM
Structure (SMILES): CCc1c(C#N)c(SC(C(N)=O)c2ccccc2)nc(N(C)CC(=O)NC)c1C#N (stereo not given)
- Activity [1]: inactive
- inhibition (INH) [3]: <50%
- T1/2 [4]: < 4 h
- Activity [5]: inactive
- Activity [6]: Active
- Activity [8]: Active
- Activity [10]: 100%
- Activity [12]: Dose-dependent-effect
- Emax [14]: 89%
- Activity [15]: inactive
- Activity [16]: Time-dependent-effect
- Activity [17]: Not active; Partial Rescue Of Degradation Observed
- Activity [18]: inactive
- Activity [19]: Not active; Partial Rescue Of Degradation Observed
